Values of other authors in patent US12661368B2, “Maribavir isomers, compositions, methods of making and methods of using” (Takeda Pharmaceutical Company Limited, priority 2010, dated 2026).

What was measured:
cytomegalovirus (CMV) [1] = details: Phase 3, 300 Study, allogeneic SCT patients, prophylaxis
cytomegalovirus (CMV) [2] = details: Phase 2, 200 Study

Which “key secondary endpoints of the study” value (cytomegalovirus (CMV) [1]) does the source give for CC(C)Nc1nc2cc(Cl)c(Cl)cc2n1[C@H]1O[C@@H](CO)[C@H](O)[C@@H]1O [maribavir, 5,6-dichloro-2-(isopropylamino)-1-(β-L-ribofuranosyl)-1H-benzimidazole] here?
The value was “failed to meet its key secondary endpoints”.

And the “reducing the rate of CMV disease, maribavir versus placebo (primary analysis)” value (cytomegalovirus (CMV) [1]; dosing fasted or fed)?
The value was “no statistically significant difference”.

What about the tolerability profile (cytomegalovirus (CMV) [2]; administration for up to 12 weeks, SCT patients) of the same compound?
The tolerability profile was “favorable tolerability profile”.

What about the “rate of reactivation of CMV in recipients of allogeneic stem cell (bone marrow) transplants” value (cytomegalovirus (CMV) [2]; prophylaxis, fasted dosing protocol, preliminary results) of the same compound?
The value was “significant reduction”.
